Converted amounts (≈) assume the structure as drawn. The source made the active and inactive calls. The calls are words filed in the database; no cut-off is given here.
Tests used:
[1] = system: Klebsiella pneumoniae; experiment: Antibacterial activity against Klebsiella pneumoniae ATCC 700603 measured after 18 to 20 hrs by broth microdilution method; format: functional; details: time 18-20 hrs
[2] = system: Escherichia coli; experiment: Antibacterial activity against Escherichia coli ATCC 25922 measured after 18 to 20 hrs by broth microdilution method; format: functional; details: time 18-20 hrs
[3] = system: Staphylococcus aureus; experiment: Antibacterial activity against Staphylococcus aureus ATCC 25923 measured after 18 to 20 hrs by broth microdilution method; format: functional; details: time 18-20 hrs
[4] = system: Pseudomonas aeruginosa; experiment: Antibacterial activity against Pseudomonas aeruginosa PAO1 measured after 18 to 20 hrs by broth microdilution method; format: functional; details: time 18-20 hrs
[5] = system: Pseudomonas aeruginosa; experiment: Antibacterial activity against Pseudomonas aeruginosa 1121 measured after 18 to 20 hrs by broth microdilution method; format: functional; details: time 18-20 hrs
[6] = system: Pseudomonas aeruginosa; experiment: Antibacterial activity against Pseudomonas aeruginosa 27853 measured after 18 to 20 hrs by broth microdilution method; format: functional; details: time 18-20 hrs
[7] = system: Pseudomonas aeruginosa; experiment: Antibacterial activity against Pseudomonas aeruginosa FB measured after 18 to 20 hrs by broth microdilution method; format: functional; details: time 18-20 hrs
[8] = system: Pseudomonas aeruginosa; experiment: Antibacterial activity against Pseudomonas aeruginosa PAO1 measured after 18 to 20 hrs in presence of FeIII cultured under CAA medium by broth microdilution method; format: functional; details: time 18-20 hrs
[9] = system: Pseudomonas aeruginosa; experiment: Antibacterial activity against Pseudomonas aeruginosa 27853 measured after 18 to 20 hrs in presence of FeIII cultured under CAA medium by broth microdilution method; format: functional; details: time 18-20 hrs
[10] = system: Klebsiella pneumoniae; experiment: Antibacterial activity against Klebsiella pneumoniae ATCC 700603 measured after 18 to 20 hrs in presence of FeIII cultured under CAA medium by broth microdilution method; format: functional; details: time 18-20 hrs
[11] = system: Escherichia coli; experiment: Antibacterial activity against Escherichia coli ATCC 25922 measured after 18 to 20 hrs in presence of FeIII cultured under CAA medium by broth microdilution method; format: functional; details: time 18-20 hrs
[12] = Cytotoxicity against African green monkey Vero cells at 50 uM measured after 24 hrs by MTT assay; format: toxicity, cell-based; details: chlorocebus sabaeus
[13] = system: Pseudomonas aeruginosa; experiment: Antibacterial activity against Pseudomonas aeruginosa PAO1 infected in Caenorhabditis elegans assessed as improvement in survival rate at 50 uM measured after 72 hrs; format: functional, organism-based
[14] = Metal chelating activity assessed as compound-Fe3+ complex formation incubated for 10 mins by CAS assay
[15] = system: Cell membrane; experiment: Induction of outer membrane permeabilization in Pseudomonas aeruginosa PAO1 assessed as increase in accumulation of NPN by measuring fluorescence intensity measured for 1 hr by NPN dye uptake assay; format: cell membranes
[16] = Cytotoxicity against African green monkey Vero cells at 100 uM measured after 24 hrs by MTT assay; format: toxicity, cell-based; details: chlorocebus sabaeus
[17] = system: Erythrocyte; experiment: Hemolytic activity in rabbit red blood cells assessed as hemolysis at 12.5 to 50 uM measured after 2 hrs by microplate reader based analysis; format: toxicity, cell-based, Oryctolagus cuniculus; details: dose 12.5-50 µM
[18] = Acute toxicity in L4 stage of Caenorhabditis elegans at 12.5 to 50 uM; details: dose 12.5-50 µM
[19] = system: Pseudomonas aeruginosa; experiment: Antibacterial activity against Pseudomonas aeruginosa PAO1 infected in Caenorhabditis elegans assessed as improvement in survival rate at 12.5 to 50 uM measured upto 72 hrs; format: functional, organism-based; details: dose 12.5-50 µM
[20] = system: Pseudomonas aeruginosa; experiment: Antibacterial activity against Pseudomonas aeruginosa PAO1 infected in Caenorhabditis elegans assessed as survival rate at 12.5 to 50 uM measured upto 72 hrs relative to control; format: functional; details: dose 12.5-50 µM
[21] = system: Cell membrane; experiment: Induction of cytoplasmic membrane permeabilization in Pseudomonas aeruginosa PAO1 assessed as disruption of cell membrane integrity by measuring increase in number of dead cells measured after 2 hrs by PI and SYTO9 staining based confocal laser scanning microscopy analysis; format: cell membranes
[22] = system: Pseudomonas aeruginosa; experiment: Antibacterial activity against Pseudomonas aeruginosa PAO1 overexpressing fpvA mutant assessed as fold increase in MIC measured after 18 to 20 hrs by broth microdilution method; format: functional; details: time 18-20 hrs
[23] = system: Pseudomonas aeruginosa; experiment: Antibacterial activity against Pseudomonas aeruginosa PAO1 delta-pvds measured after 18 to 20 hrs by broth microdilution method; format: functional, organism-based; details: time 18-20 hrs

Structure (SMILES) | MIC [1] [µM] | MIC [2] [µM] | MIC [3] [µM] | MIC [4] [µM] | MIC [5] [µM] | MIC [6] [µM] | MIC [7] [µM] | further results
COc1cc(/C=C/c2ccc(F)cc2)c(C(=O)O)c(O)c1CC=C(C)C | > 250 | > 250 | 15.6 (≈ 5.56 µg/mL) | > 250 | > 250 | > 250 | > 250 | MIC [8]: > 250 µM; MIC [9]: > 250 µM; MIC [10]: > 250 µM; MIC [11]: > 250 µM; Activity [12]: Non-Toxic; Activity [13]: inactive; Activity [14]: inactive
CC(C)=CCc1c(OCCCCCCCC(=O)NCc2cc(=O)c(O)cn2C)cc(CSc2ccc(F)cc2)c(C(=O)O)c1O | > 250 | > 250 | > 250 | > 250 | > 250 | > 250 | > 250 | 
CCn1cc(O)c(=O)cc1CNC(=O)CCCCCCOc1cc(/C=C/c2ccc(F)cc2)c(C(=O)O)c(O)c1CC=C(C)C | > 250 | > 250 | > 250 | 7.8 (≈ 4.84 µg/mL) | > 250 | 31.2 (≈ 19.4 µg/mL) | > 250 | 
CC(C)=CCc1c(OCc2cn(Cc3cc(=O)c(O)cn3C)nn2)cc(/C=C/c2ccc(F)cc2)c(C(=O)O)c1O | > 250 | > 250 | > 250 | > 250 | > 250 | > 250 | > 250 | 
CCn1cc(C(=O)O)c(=O)c2cc(F)c(N3CCNCC3)cc21 [NORFLOXACIN] | 31.2 (≈ 9.98 µg/mL) | 0.49 (≈ 0.156 µg/mL) | 7.8 (≈ 2.49 µg/mL) | 1.95 (≈ 0.623 µg/mL) | 3.9 (≈ 1.25 µg/mL) | 15.6 (≈ 4.98 µg/mL) | 3.9 (≈ 1.25 µg/mL) | MIC [8]: 1.95 µM; MIC [9]: 15.6 µM; MIC [10]: 31.2 µM; MIC [11]: 0.49 µM
CC(C)=CCc1c(OCc2cn(CCCn3cc(O)c(=O)cc3C)nn2)cc(/C=C/c2ccc(F)cc2)c(C(=O)O)c1O | > 250 | > 250 | > 250 | 31.2 (≈ 18.4 µg/mL) | > 250 | 31.2 (≈ 18.4 µg/mL) | > 250 | 
CC(C)=CCc1c(OCCCCC(=O)NCc2cc(=O)c(O)cn2C)cc(/C=C/c2ccc(F)cc2)c(C(=O)O)c1O | > 250 | > 250 | > 250 | 31.2 (≈ 18.1 µg/mL) | 31.2 (≈ 18.1 µg/mL) | 31.2 (≈ 18.1 µg/mL) | 31.2 (≈ 18.1 µg/mL) | 
CC(C)=CCc1c(OCCCCCCC(=O)NCc2c(O)c(=O)cc(C)n2C)cc(/C=C/c2ccc(F)cc2)c(C(=O)O)c1O | > 250 | > 250 | > 250 | 7.81 (≈ 4.85 µg/mL) | > 250 | > 250 | > 250 | 
CC(C)=CCc1c(OCc2cn(CCn3cc(O)c(=O)cc3C)nn2)cc(/C=C/c2ccc(F)cc2)c(C(=O)O)c1O | > 250 | > 250 | > 250 | 125 (≈ 71.8 µg/mL) | 250 (≈ 144 µg/mL) | 62.5 (≈ 35.9 µg/mL) | 250 (≈ 144 µg/mL) | 
CC(C)=CCc1c(OCCCCCCCC(=O)NCc2c(O)c(=O)cc(C)n2C)cc(/C=C/c2ccc(F)cc2)c(C(=O)O)c1O | > 250 | > 250 | > 250 | > 250 | > 250 | > 250 | > 250 | 
CC(C)=CCc1c(OCCCCCC(=O)NCc2cc(=O)c(O)cn2C)cc(CSc2ccc(F)cc2)c(C(=O)O)c1O | > 250 | > 250 | > 250 | > 250 | > 250 | > 250 | > 250 | 
CCCCCCCC(=O)NCc1cc(=O)c(O)cn1C | > 250 | > 250 | > 250 | > 250 | > 250 | > 250 | > 250 | 
CCCn1cc(O)c(=O)cc1CNC(=O)CCCCCCOc1cc(/C=C/c2ccc(F)cc2)c(C(=O)O)c(O)c1CC=C(C)C | > 250 | > 250 | > 250 | 7.8 (≈ 4.95 µg/mL) | > 250 | 31.2 (≈ 19.8 µg/mL) | > 250 | 
CC(C)=CCc1c(OCCCCCC(=O)NCc2cc(=O)c(O)cn2C)cc(/C=C/c2ccc(F)cc2)c(C(=O)O)c1O | > 250 | > 250 | > 250 | 31.2 (≈ 18.5 µg/mL) | 31.2 (≈ 18.5 µg/mL) | 31.2 (≈ 18.5 µg/mL) | > 250 | 
CC(C)=CCc1c(OCCCCCC(=O)NCc2c(O)c(=O)cc(C)n2C)cc(CSc2ccc(F)cc2)c(C(=O)O)c1O | > 250 | > 250 | > 250 | > 250 | > 250 | > 250 | > 250 | 
CC1(C)S[C@@H]2[C@H](NC(=O)[C@H](N)c3ccccc3)C(=O)N2[C@H]1C(=O)O [AMPICILLIN] | > 250 | 1.95 (≈ 0.681 µg/mL) | 0.24 (≈ 0.0839 µg/mL) | 125 (≈ 43.7 µg/mL) | > 250 | > 250 | > 250 | MIC [8]: 62.5 µM; MIC [9]: > 250 µM; MIC [10]: > 250 µM; MIC [11]: 3.9 µM
CC(C)=CCc1c(OCCCCCCCC(=O)NCc2cc(=O)c(O)cn2C)cc(/C=C/c2ccc(F)cc2)c(C(=O)O)c1O | > 250 | > 250 | > 250 | 7.8 (≈ 4.84 µg/mL) | 15.6 (≈ 9.68 µg/mL) | 15.6 (≈ 9.68 µg/mL) | 31.2 (≈ 19.4 µg/mL) | MIC [8]: > 250 µM; MIC [9]: > 250 µM; MIC [10]: > 250 µM; MIC [11]: > 250 µM; Activity [15]: Active; Activity [12]: Non-Toxic; Activity [16]: Toxic; Activity [17]: Non-Toxic; Activity [18]: Non-Toxic; Activity [19]: Active; Survival [20]: 50%; Activity [21]: Dose-Dependent Effect; Activity [14]: Active; fold change (FC) [22]: 4; Activity [23]: Active
COc1cc(CSc2ccc(F)cc2)c(C(=O)O)c(O)c1CC=C(C)C | > 250 | > 250 | 62.5 (≈ 23.5 µg/mL) | > 250 | > 250 | > 250 | > 250 | 
CCCCCCC(=O)NCc1cc(=O)c(O)cn1C | > 250 | > 250 | > 250 | > 250 | > 250 | > 250 | > 250 | 
CC(C)=CCc1c(OCCCCCCC(=O)NCc2cc(=O)c(O)cn2C)cc(CSc2ccc(F)cc2)c(C(=O)O)c1O | > 250 | > 250 | > 250 | 7.8 (≈ 4.89 µg/mL) | > 250 | > 250 | > 250 | 
CC(C)=CCc1c(OCCCCCCCC(=O)NCc2c(O)c(=O)cc(C)n2C)cc(CSc2ccc(F)cc2)c(C(=O)O)c1O | > 250 | > 250 | > 250 | > 250 | > 250 | > 250 | > 250 | 
CC(C)=CCc1c(OCCCCCCC(=O)NCc2cc(=O)c(O)cn2C)cc(/C=C/c2ccc(F)cc2)c(C(=O)O)c1O | > 250 | > 250 | > 250 | 7.8 (≈ 4.73 µg/mL) | 15.6 (≈ 9.46 µg/mL) | 15.6 (≈ 9.46 µg/mL) | 31.2 (≈ 19 µg/mL) | MIC [8]: > 250 µM; MIC [9]: > 250 µM; MIC [10]: > 250 µM; MIC [11]: > 250 µM; Activity [15]: Dose-Dependent Effect; Activity [12]: Non-Toxic; Activity [16]: Toxic; Activity [17]: Non-Toxic; Activity [18]: Non-Toxic; Activity [19]: Active; Survival [20]: 50%; Activity [21]: Dose-Dependent Effect; Activity [14]: Active; fold change (FC) [22]: 4; Activity [23]: Active
CC(C)=CCc1c(OCCCCCC(=O)NCc2c(O)c(=O)cc(C)n2C)cc(/C=C/c2ccc(F)cc2)c(C(=O)O)c1O | > 250 | > 250 | > 250 | > 250 | > 250 | > 250 | > 250 | 
CC(C)=CCc1c(OCCCCCCC(=O)NCc2c(O)c(=O)cc(C)n2C)cc(CSc2ccc(F)cc2)c(C(=O)O)c1O | > 250 | > 250 | > 250 | > 250 | > 250 | > 250 | > 250 | 
CC(C)=CCc1c(OCc2cn(CCCCCCC(=O)NCc3cc(=O)c(O)cn3C)nn2)cc(/C=C/c2ccc(F)cc2)c(C(=O)O)c1O | > 250 | > 250 | > 250 | 15.6 (≈ 10.7 µg/mL) | > 250 | > 250 | > 250 | 
